Tests used:
Type in all cases: in vivo
[1] = system: Surinam grass (Brachiaria decumbens); assay: Test C pre/postemergence; details: for Surinam Grass plant response rating: scale 0 to 100 (0 no effect, 100 complete control)
Summary of the method: (§1)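 Test compounds, formulated in a non-phytotoxic solvent mix with surfactant, were applied to freshly planted seeds and, at the same time, to emerged plants at 1- to 4-leaf stage (2 to 18 cm). After 12 to 14 days in the greenhouse, response was scored visually versus controls, 0 = no effect, 100 = complete control.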

[2] = system: common (oilseed) sunflower (Helianthus annuus); assay: Test C pre/postemergence; details: Preemergence
Summary of the method: as §1

[3] = system: common ragweed (Ambrosia elatior); assay: Test C pre/postemergence; details: for Ragweed plant response rating: scale 0 to 100 (0 no effect, 100 complete control)
Summary of the method: as §1

[4] = system: giant foxtail (Setaria faberii); assay: Test C pre/postemergence; details: for Foxtail, Giant plant response rating: scale 0 to 100 (0 no effect, 100 complete control)
Summary of the method: as §1

[5] = system: johnsongrass (Sorghum halepense); assay: Test C pre/postemergence; details: for Johnsongrass plant response rating: scale 0 to 100 (0 no effect, 100 complete control)
Summary of the method: as §1

kochia (Kochia scoparia) = assay: Test C pre/postemergence; details: for Kochia plant response rating: scale 0 to 100 (0 no effect, 100 complete control)
Summary of the method: as §1

[6] = system: morningglory (Ipomoea coccinea); assay: Test C pre/postemergence; details: for Morningglory plant response rating: scale 0 to 100 (0 no effect, 100 complete control)
Summary of the method: as §1

[7] = system: pigweed (Amaranthus retroflexus); assay: Test C pre/postemergence; details: for Pigweed plant response rating: scale 0 to 100 (0 no effect, 100 complete control)
Summary of the method: as §1

soybean (Glycine max) = assay: Test C pre/postemergence; details: for Soybean plant response rating: scale 0 to 100 (0 no effect, 100 complete control)
Summary of the method: as §1

[8] = system: woolly cupgrass (Eriochloa villosa); assay: Test C pre/postemergence; details: for Cupgrass, Woolly plant response rating: scale 0 to 100 (0 no effect, 100 complete control)
Summary of the method: as §1

[9] = system: yellow nutsedge (Cyperus esculentus); assay: Test C pre/postemergence; details: for Nutsedge, Yellow plant response rating: scale 0 to 100 (0 no effect, 100 complete control)
Summary of the method: as §1

[10] = system: chickweed (Stellaria media); assay: Test C postemergence; details: for Plant response rating, Chickweed: scale 0 to 100
Summary of the method: as §1

[11] = Postemergence, 250 g ai/ha, scale 0 to 100
[12] = Preemergence, 31 g ai/ha, scale 0 to 100, 0 no effect, 100 complete control
[13] = Preemergence, 62 g ai/ha, scale 0 to 100, 0 no effect, 100 complete control
[14] = Preemergence, 125 g ai/ha, scale 0 to 100
[15] = Preemergence, 250 g ai/ha, scale 0 to 100

CCCCOC(=O)c1nc(C2CC2)nc(N)c1Br [Compound 16]
15: Plant response rating, Surinam Grass [1, 14] | Plant response rating, Cupgrass, Woolly [8, 14]
90: Plant response rating, Ragweed [3, 13] | Plant response rating, Kochia (kochia (Kochia scoparia); [12]) | Pigweed plant response rating ([7]; Postemergence, 62 g ai/ha)
35: Plant response rating, Chickweed ([10]; 250 g ai/ha)
60: Plant response rating (scale of 0 to 100), Ragweed ([3]; Postemergence, 31 g ai/ha) | Johnsongrass plant response rating ([5]; Postemergence, 125 g ai/ha)
45: Plant response rating, Ragweed [3, 12]
100: Plant response rating, Sunflower ([2]; 125 g ai/ha, scale 0 to 100) | Plant response rating, Sunflower ([2]; 250 g ai/ha, scale 0 to 100) | Plant response rating, Ragweed [3, 15] | Kochia plant response rating (kochia (Kochia scoparia); Postemergence, 62 g ai/ha) | Kochia plant response rating (kochia (Kochia scoparia); Postemergence, 125 g ai/ha) | Plant response rating, Kochia (kochia (Kochia scoparia); [11]) | Plant response rating, Kochia (kochia (Kochia scoparia); [14]) | Plant response rating, Kochia (kochia (Kochia scoparia); [15]) | Morningglory plant response rating ([6]; Postemergence, 125 g ai/ha) | Plant response rating, Morningglory [6, 11] | Plant response rating, Morningglory [6, 14] | Plant response rating, Morningglory [6, 15] | Plant response rating, Pigweed [7, 14] | Plant response rating, Pigweed [7, 15] | Soybean plant response rating (soybean (Glycine max); Postemergence, 125 g ai/ha) | Plant response rating, Soybean (soybean (Glycine max); [11]) | Plant response rating, Soybean (soybean (Glycine max); [14]) | Plant response rating, Soybean (soybean (Glycine max); [15])
20: Plant response rating, Sunflower ([2]; 31 g ai/ha, scale 0 to 100, 0 no effect, 100 complete control) | Foxtail, Giant plant response rating ([4]; Postemergence, 62 g ai/ha) | Plant response rating, Chickweed ([10]; 125 g ai/ha)
25: Surinam Grass plant response rating ([1]; Postemergence, 125 g ai/ha)
40: Plant response rating, Johnsongrass [5, 13]
0: Plant response rating (scale of 0 to 100), Surinam Grass ([1]; Postemergence, 31 g ai/ha) | Surinam Grass plant response rating ([1]; Postemergence, 62 g ai/ha) | Plant response rating, Surinam Grass [1, 12] | Plant response rating, Surinam Grass [1, 13] | Plant response rating (scale of 0 to 100), Foxtail, Giant ([4]; Postemergence, 31 g ai/ha) | Plant response rating, Foxtail, Giant [4, 12] | Plant response rating, Foxtail, Giant [4, 13] | Plant response rating, Foxtail, Giant [4, 14] | Plant response rating (scale of 0 to 100), Johnsongrass ([5]; Postemergence, 31 g ai/ha) | Johnsongrass plant response rating ([5]; Postemergence, 62 g ai/ha) | Plant response rating, Johnsongrass [5, 12] | Plant response rating (scale of 0 to 100), Cupgrass, Woolly ([8]; Postemergence, 31 g ai/ha) | Cupgrass, Woolly plant response rating ([8]; Postemergence, 62 g ai/ha) | Cupgrass, Woolly plant response rating ([8]; Postemergence, 125 g ai/ha) | Plant response rating, Cupgrass, Woolly [8, 12] | Plant response rating, Cupgrass, Woolly [8, 13] | Plant response rating (scale of 0 to 100), Nutsedge, Yellow ([9]; Postemergence, 31 g ai/ha) | Nutsedge, Yellow plant response rating ([9]; Postemergence, 62 g ai/ha) | Nutsedge, Yellow plant response rating ([9]; Postemergence, 125 g ai/ha) | Plant response rating, Nutsedge, Yellow [9, 11] | Plant response rating, Nutsedge, Yellow [9, 12] | Plant response rating, Nutsedge, Yellow [9, 13] | Plant response rating, Nutsedge, Yellow [9, 14] | Plant response rating, Nutsedge, Yellow [9, 15] | Plant response rating (scale of 0 to 100), Chickweed ([10]; 31 g ai/ha) | Chickweed plant response rating ([10]; 62 g ai/ha, scale 0 to 100 (0 no effect, 100 complete control))
85: Plant response rating, Sunflower ([2]; 62 g ai/ha, scale 0 to 100, 0 no effect, 100 complete control) | Ragweed plant response rating ([3]; Postemergence, 62 g ai/ha) | Plant response rating (scale of 0 to 100), Morningglory ([6]; Postemergence, 31 g ai/ha) | Plant response rating (scale of 0 to 100), Pigweed ([7]; Postemergence, 31 g ai/ha) | Plant response rating, Pigweed [7, 12] | Plant response rating (scale of 0 to 100), Soybean (soybean (Glycine max); Postemergence, 31 g ai/ha) | Plant response rating, Soybean (soybean (Glycine max); [13])
65: Plant response rating, Foxtail, Giant [4, 11] | Plant response rating, Johnsongrass [5, 14] | Plant response rating, Morningglory [6, 12] | Plant response rating, Cupgrass, Woolly [8, 11] | Plant response rating, Cupgrass, Woolly [8, 15]
70: Plant response rating, Johnsongrass [5, 11]
80: Plant response rating, Surinam Grass [1, 15] | Plant response rating, Johnsongrass [5, 15]
95: Ragweed plant response rating ([3]; Postemergence, 125 g ai/ha) | Plant response rating, Ragweed [3, 11] | Plant response rating, Ragweed [3, 14] | Plant response rating (scale of 0 to 100), Kochia (kochia (Kochia scoparia); Postemergence, 31 g ai/ha) | Plant response rating, Kochia (kochia (Kochia scoparia); [13]) | Morningglory plant response rating ([6]; Postemergence, 62 g ai/ha) | Plant response rating, Morningglory [6, 13] | Pigweed plant response rating ([7]; Postemergence, 125 g ai/ha) | Plant response rating, Pigweed [7, 11] | Plant response rating, Pigweed [7, 13] | Soybean plant response rating (soybean (Glycine max); Postemergence, 62 g ai/ha)
55: Plant response rating, Surinam Grass [1, 11] | Foxtail, Giant plant response rating ([4]; Postemergence, 125 g ai/ha)
75: Plant response rating, Foxtail, Giant [4, 15] | Plant response rating, Soybean (soybean (Glycine max); [12])

Reference: patent US8802597B2, “Herbicidal pyrimidines” (E I du Pont de Nemours and Company, priority 2003, dated 2014)
